Source: patent US12590126B2, “Compounds for selective disruption of protein-protein interactions” (SyntheX, Inc., priority 2017, dated 2026)
Entries after “also recorded” stand apart in the source; their conditions may differ. Where two headings read alike, the source gives them in different places. One block for each molecule: values may come before it. [ ]: non-standard residue; d: D form.

Assays:
fresh human RBCs = format: cell-based
Description: To assess the nonspecific lytic properties of each compounds disclosed herein, each mentioned compound was tested for hemolytic properties against fresh human RBCs. Briefly, donor blood was drawn into a K2EDTA anticoagulant tube from multiple O+ donors. The blood was washed 3 times in PBS. RBCs were diluted to 2% in PBS and compounds were added at various concentrations. Samples were incubated at 37 C for 1 hr, then centrifuged at 2200 rpm for 5 min. Supernatants were measured for absorbance at 450 nm or 405 nm. The percentage hemolysis was calculated as lysis relative to 1% Triton X-100 incubation.

SSP25 cells [1] = assay: Selective killing, Cytation imaging of SSP25 cells; format: cell-based; conditions: 10 μM
Description: To assess the specificity of compounds disclosed herein in targeting cancers with overexpression of RAD51, Compound 1 was tested against primary fibroblasts and SSP25 cells (cholangiocarcinoma cell line) (FIG. 5). First, 5,000 cells were incubated in 96-well culture plates overnight. Cells were grown in DMEM or RPMI, respectively, with 10% FBS, and […] was added to a concentration of 10 μM and imaging commenced using a Cytation™ instrument using approximately 5 minute time points. DAPI was used to visualize the nuclei and mitotracker-red was used to observe mitochondria. […] Furthermore, cell morphology was affected within 5 minutes of imaging, and the macrobubble phenotype was stable for further periods of time.

SSP25 cells [2] = assay: xCELLigence cell death assay with necroptosis or apoptosis inhibitor; format: cell-based; conditions: for cell death with added necroptosis inhibitor Necrostatin: 40 μM compound + 50 μM Necrostatin; for cell death with added apoptosis inhibitor z-VAD: 40 μM compound + 100 μM z-VAD
Description: Further experiments were performed to elucidate the method of cell death induced by Compound 1. In one experiment, xCELLIGENCE cell death assays as in Examples 1 and 5 were performed, treating with either a necroptosis inhibitor (Necrostatin, 50 μM) alone or in combination with Compound 1 (40 μM). In another experiment, xCELLIGENCE cell death assays as in Examples 1 and 5 were performed, treating with either a apoptosis inhibitor (z-VAD, 100 μM) alone or in combination with Compound 1 (40 μM).

A549 xenograft = A549 xenograft in athymic nu/nu mice, Compound 1 IT and IP; format: in vivo; conditions: for tumor volume / size, intra-tumoral dosing: 50 microliters of 10 or 20 mg/ml IT, day 0, day 3 and every other day
Description: Female athymic nu/nu mice (6-8 weeks old) were purchased from Simonsen labs (n=12) and were housed at the Murigenics vivarium in Vallejo. The mice were acclimated to the setting of the vivarium for 5 days and maintained on a standard chow diet; 12:12 dark/light cycle; and group housed (3 mice per cage) in HEPA-filtered cages. After acclimation, each mouse was injected subcutaneously (lower left abdominal flank) with 5×10^6 A549 (ATCC: CCL-185) cells mixed with 1:1 (v/v) with Matrigel solution. When the tumors reached a volume of—100 mm3, the mice were divided into separate treatment groups for the desired treatments. Experiments using both intra-tumoral (IT) and intraperitoneal (IP) administration were performed and the data are reported in FIGS. 10 and 11.
Mice prepared as described above were divided into 4 groups: • Group 1: received an intra-tumoral injection of 50 microliters of Phosphate Buffered Saline (mock) (n=3) • Group 2: received an intra-tumoral injection of 50 microliters of 10 mg/ml Compound 1 in Phosphate Buffered Saline (n=3) • Group 3: received an intra-tumoral injection of 50 microliters of 20 mg/ml Compound 1 in Phosphate Buffered Saline (n=3)
The 50 microliter injections were carried out with a (30 g needle). The injections were administered on day zero and then again on day 3, and every other day. The length (L) and the width (W) of the tumor mass was measured with a Vernier caliper and the tumor volume (V) was calculated as V=(L×WA2)/2. The relative tumor volume of each tumor mass on each measurement day was normalized against the initial volume of the same mass on day zero right before initiation of injections. […]
The injections were carried out with a 30 g needle. […] The length (L) and the width (W) of the tumor mass was measured with a Vernier caliper and the tumor volume (V) was calculated as V=(L×WA2)/2. […]

A549 cells [3] = assay: A549 cell growth/death, xCELLigence and microscopy; format: cell-based; conditions: xCELLigence, concentration gradient
Description: To assess the growth inhibitory properties of compounds disclosed herein, 10 μM of Compound 1 was tested against a PBS mock treatment for growth of A549 cells using microscopy at the indicated timepoints shown in the top right corner of each panel of FIG. 2. […] First, 5,000 A549 cells were plated, and adherence and growth was measured for 20 hours using live measurements of current impedance through the plate using the xCELLigence™ instrument. At the […] mark, a concentration gradient of Compound 1 or a PBS control was added to the A549 cells, which were cultured in 100 μL DMEM media with 10% FBS.

SSP-25 cells = assay: xCELLigence cell death assay in SSP-25 cells (cellular assay for RAD51 inhibition); format: cell-based; conditions: concentration gradient added at 20 hour mark, only values with R^>0.85 shown
Description: The efficacy of the peptides described herein was assessed by their ability to cause death in SSP-25 cells, which have amplification of RAD51 and are dependent on its activity.
First, 5,000 SSP25 cells were plated, and adherence and growth was measured for 20 hours using live measurements of current impedance through the plate using the xCELLigence™ instrument. At the 20 hour mark, a concentration gradient of each compound or a PBS control was added to the SSP-25 cells, which were cultured in […] RMPI media with 10% FBS. […] Only values with confidence and R^>0.85 are shown.

A549 cells [4] = assay: Intracellular calcium imaging with Fluo-2-AM; format: cell-based; conditions: 30 μM compound, pre-incubation with 2.5 μM Fluo-2-AM
Text: Timestamps for the duration of the experiment are indicated in each panel.

SSP25 cells [5] = assay: xCELLigence cell death assay with intracellular calcium chelators; format: cell-based; conditions: relative to compound alone
Description: To investigate the hypothesis that peptide treatment of cells causes cell death via increases in intracellular free calcium levels, Compound 1 alone and in combination with two different intracellular calcium chelators (1,2-Bis(2-aminophenoxy)ethane-N,N,N′,N′-tetraacetic acid tetrakis(acetoxymethyl ester) aka “BAPTA-AM”, and ammoniated ruthenium oxychloride aka “ruthenium red”) was tested in an xCELLigence™ cell death assay as in Example 1. The intracellular calcium chelators alone were also evaluated on the cells.

in vitro [6] = conditions: mouse, microsomes
Description: (§1) For HLM and MLM stability studies, each compound was incubated with the liver microsome mixture for up to an hour at 37 C in the presence of NADPH.
(§2) After the incubations, the reactions were stopped and the compounds were analyzed according to the method developed for each.

[7] = Mouse pharmacokinetics, IV and IP dosing; format: in vivo, mice
Description: The pharmocokinetic parameters in mice by both intravenous (IV) and intraperitoneal (IP) dosing, as well as the serum and microsome stability for each of compound 22, 23, 24, and 25 was determined. Bioanalytical methods were developed for each compound using an LC-MS/MS method with LLOQ>100 ng/ml.
For in-vivo PK work, at least 3 mice were used per timepoint. For each compound, the animals were injected either IV or IP with the compound. IV injections used 1 mg/kg, and IP injections were at 15 mg/kg. Blood was collected at the indicated timepoints and analyzed according to the bioanalytical method developed.

in vitro [8] = conditions: mouse, serum
Description: Serum stability data was obtained using the appropriate animal serum, each incubated with the compound for up to two hours at 37 C.

in vitro [9] = conditions: human, microsomes
Description: as §1, §2

Molecule: Ac-lmrsvrlrvGlrkrrrrrrr-NH2 (Ac-[dL][dM][dR][dS][dV][dR][dL][dR][dV]G[dL][dR][dK][dR][dR][dR][dR][dR][dR][dR]-NH2) [Compound 1]
% Hemolysis (250 uM) (fresh human RBCs): 3%
time until cell morphology was affected (SSP25 cells [1]): ≤ 5 minutes
cell morphology / cell death in SSP25 cells (SSP25 cells [1]; approx. 5 minute time points): drastically affected in SSP25 cells
cell death with added necroptosis inhibitor Necrostatin (SSP25 cells [2]): addition of the inhibitor has no effect on the activity
cell death with added necroptosis inhibitor Necrostatin (SSP25 cells [2]; listed as compound 1): does not cause cell death through necroptosis or apoptosis
cell death with added apoptosis inhibitor z-VAD (SSP25 cells [2]): addition of the inhibitor has no effect on the activity
cell death with added apoptosis inhibitor z-VAD (SSP25 cells [2]; listed as compound 1): does not cause cell death through necroptosis or apoptosis
tumor volume / size, intra-tumoral dosing (A549 xenograft): measurable decreases in tumor size as early as day 3
tumor volume / size, intra-tumoral dosing (A549 xenograft; listed as compound 1): significant effects on tumor volume after only a few days of treatment
tumor size, intra-peritoneal dosing (A549 xenograft; 125 microliters of 3 mg/ml IP, single dose on day seven): measurable decreases in tumor size as early as 3 days after injection (day 10)
effect on growth / cell death of A549 cells (A549 cells [3]): dose-dependent effect on the growth of A549 cells displaying acute cell death kinetics
IC50 (SSP-25 cells): 2.4 µM
intracellular calcium (Fluo-2 dye) (A549 cells [4]): accumulation of intracellular calcium
cell death with added calcium chelator BAPTA-AM (SSP25 cells [5]; 10 μM compound + 10 μM BAPTA-AM): rescues cell death relative to compound alone; also recorded: addition of BAPTA-AM rescues cell death
cell death with added calcium chelator ruthenium red (SSP25 cells [5]; 10 μM compound + 40 μM Ruthenium red): rescues cell death relative to compound alone; also recorded: addition of ruthenium red rescues cell death

half-life (in vitro [6]): 0.77 h
AUC Extr ([7]; 1 mg/kg IV): 16.8%
Vss ([7]; 15 mg/kg IP): 3.41 L/kg
AUC(0-inf) ([7]; in vivo, 1 mg/kg IV): 308 ng·h/mL
AUC(0-t) ([7]; in vivo, 1 mg/kg IV): 254 ng·h/mL
C0 ([7]; in vivo, 1 mg/kg IV): 750 ng/mL
MRT inf ([7]; in vivo, 1 mg/kg IV): 0.551 h
clearance ([7]; in vivo, 1 mg/kg IV): 55.7 mL/min/kg
AUC(0-inf) ([7]; in vivo, 15 mg/kg IP): 831 ng·h/mL
MRT inf ([7]; in vivo, 15 mg/kg IP): 21.8 h
half-life ([7]; in vivo, ip, 15 mg/kg, 15 mg/kg IP, read-out: t½ (converted)): 2.14 h
half-life ([7]; in vivo, ip, 15 mg/kg, IP (15 mg/kg), read-out: Half-life Mouse IP): 2.14 h
Vd ([7]; in vivo, iv, 1 mg/kg, 1 mg/kg IV, read-out: Vss): 1.8 L/kg
Vd ([7]; in vivo, iv, 1 mg/kg, 1 mg/kg IV, read-out: Vz): 1.99 L/kg
half-life ([7]; in vivo, iv, 1 mg/kg, 1 mg/kg IV, read-out: t½ (converted)): 0.423 h
half-life ([7]; in vivo, iv, 1 mg/kg, IV (1 mg/kg), read-out: Half-life Mouse IV): 0.423 h
half-life (in vitro [8]): > 8.33 h
half-life (in vitro [9]): 1.36 h
Molecule: CCCC[C@@H](NC(=O)[C@@H](CC(C)C)NC(C)=O)C(=O)N[C@H](CCCNC(=N)N)C(=O)N[C@H](CO)C(=O)N[C@@H](C(=O)N[C@H](CCCNC(=N)N)C(=O)N[C@H](CC(C)C)C(=O)N[C@H](CCCNC(=N)N)C(=O)N[C@@H](C(=O)NCC(=O)N[C@H](CC(C)C)C(=O)N[C@H](CCCNC(=N)N)C(=O)NCCCCCC(=O)N[C@H](CCCNC(=N)N)C(=O)NCCCCCC(=O)N[C@H](CCCNC(=N)N)C(=O)NCCCCCC(=O)N[C@H](CCCNC(=N)N)C(=O)NCCCCCC(=O)N[C@H](CCCNC(=N)N)C(=O)NCCCCCC(=O)N[C@H](CCCNC(=N)N)C(N)=O)C(C)C)C(C)C [Compound 25, Ac-l{d-norLeucine}rsvrlrvGlr(Ahx)r(Ahx)r(Ahx)r(Ahx)r(Ahx)r-NH2]
% Hemolysis (250 uM) (fresh human RBCs; red cells of human, 1 h, 250): 4%
IC50 (SSP-25 cells): 14 µM
